Results as given in patent US6979686B1, “Substituted pyrazoles as p38 kinase inhibitors” (Pharmacia Corporation, priority 2001, dated 2005).

target: T1, human p38 kinase alpha (Homo sapiens, UniProt Q16539); test: p38 kinase in vitro assay, phosphorylation of biotinylated PHAS-I with 32P-ATP; format: biochemical; conditions: @ 10.0 uM
T1 construct: GST (N, cleaved yes); made in house; host or cells: E. coli DH10B
T1 sequence (Q16539 whole entry): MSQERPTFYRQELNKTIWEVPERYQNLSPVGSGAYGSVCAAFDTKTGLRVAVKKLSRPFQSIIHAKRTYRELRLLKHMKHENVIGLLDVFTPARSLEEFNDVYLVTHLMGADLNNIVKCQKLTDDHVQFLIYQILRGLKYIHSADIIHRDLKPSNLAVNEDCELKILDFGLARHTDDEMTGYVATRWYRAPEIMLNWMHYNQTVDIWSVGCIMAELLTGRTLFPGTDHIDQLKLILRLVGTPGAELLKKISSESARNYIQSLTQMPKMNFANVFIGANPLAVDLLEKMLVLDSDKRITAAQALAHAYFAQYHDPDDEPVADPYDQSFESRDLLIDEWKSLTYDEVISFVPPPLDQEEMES

Question: For `Cc1c(-c2ccncc2)c(-c2ccc(F)cc2)nn1CC(=O)Nc1ccccc1OC(F)(F)F` [Example B-2453], which “P38 alpha kinase IC50, uM or % inhib @ conc. (uM): % inhib” value (“P38 alpha kinase IC50 … % inhib” below) is on record?
Answer: 91.0% @

Question: How did the “P38 alpha kinase IC50 … % inhib” value turn out when `Cc1c(-c2ccncc2)c(-c2ccc(F)cc2)nn1CC(=O)Nc1ccccc1Sc1ccc([N+](=O)[O-])cn1` [Example B-2457] was run?
Answer: 90.0% @

Question: Which “P38 alpha kinase IC50 … % inhib” value does the source give for `CCOC(=O)COc1cccc(NC(=O)Cn2nc(-c3ccc(F)cc3)c(-c3ccncc3)c2C)c1` [Example B-2458] here?
Answer: 83.0% @

tested on: TNF-α, U937 human histiocytic lymphoma cell line; test: LPS stimulation of TNF production by U937 cells; format: cell-based; conditions: @ 10.0 uM; TNF production, U937 cells stimulated with LPS
How it was run: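 U937 cells differentiated 24 h with 20 ng/ml PMA, rested 24-48 h, used at 2 million cells/ml. Compounds in 0.1% DMSO final; LPS (E. coli, 100 ng/ml final) stimulation for 4 h at 37° C. Released TNF-α measured by ELISA; IC50 (μM).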

Question: Which “U937 Cell IC50, uM or % inhib @ conc. (uM): % inhib” value does the source give for `Cc1c(-c2ccncc2)c(-c2ccc(F)cc2)nn1CC(=O)Nc1ccccc1Sc1ccc([N+](=O)[O-])cn1` [Example B-2457] here?
Answer: 18.0% @

Question: How did the “U937 Cell IC50, uM or % inhib @ conc. (uM): % inhib” value turn out when `CCOC(=O)COc1cccc(NC(=O)Cn2nc(-c3ccc(F)cc3)c(-c3ccncc3)c2C)c1` [Example B-2458] was run?
Answer: 36.0% @

same assay, conditions: TNF production, U937 cells stimulated with LPS; read-out: U937 Cell IC50, uM or % inhib @ conc. (uM): IC50

Question: How did the IC50 turn out when `Cc1c(-c2ccncc2)c(-c2ccc(F)cc2)nn1CC(=O)Nc1ccccc1OC(F)(F)F` [Example B-2453] was run?
Answer: > 10 µM

tested on: TNF alpha, BALB/c mice injected with LPS; test: Mouse model of LPS-induced TNF alpha production; format: in vivo; conditions: Table 6; mouse LPS, 1 h before LPS, 30 mpk, oral gavage; read-out: mLPS 1 h, 30 mpk percent inhibition
Description: Mouse Model of LPS-induced TNF Alpha Production:
TNF alpha was induced in 10-12 week old BALB/c female mice by tail vein injection with 100 ng lipopolysaccharide (from S. Typhosa) in 0.2 ml saline. One hour later mice were bled from the retroorbital sinus and TNF concentrations in serum from clotted blood were quantified by ELISA.
Efficacy was determined at each time point as percent inhibition of serum TNF levels relative to LPS injected mice that received vehicle only.
In vivo assessment of the ability of the compounds to inhibit LPS-stimulated TNP release in the mouse is shown in the column identified as: • “Mouse LPS Model, % TNF inhib @ dose @ predose time” wherein in the dose is milligram per kilogram (mpk) administered by oral gavage and the predose time indicates the number of hours before LPS challenge when the compound is administered.

Question: How did the inhibition in vivo at 30 mg/kg turn out when `Cc1cccc(-c2nn(C)cc2-c2ccnc(C)c2)c1` [Example A-235, 2-methyl-4-[1-methyl-3 (or 5)-(3-methylphenyl)-1H-pyrazol-4-yl]pyridine] was run?
Answer: 56%

same assay, conditions: Table 6; mouse LPS, head '8 h', dose 10, oral gavage

Question: Which “mLPS 8 h percent inhibition” value does the source give for `Cn1cc(-c2ccncc2)c(-c2ccc(F)cc2)n1` [Example A-212, 4-[3-(4-fluorophenyl)-1-methyl-1H-pyrazol-4-yl]pyridine] here?
Answer: 20%

same assay, conditions: Table 6; mouse LPS, head '8 h', dose 30, oral gavage

Question: How did the “mLPS 8 h percent inhibition” value turn out when `N#Cc1cc(-c2c[nH]nc2-c2ccc(F)cc2)ccn1` [Example A-215, 4-[3-(4-fluorophenyl)-1H-pyrazol-4-yl]-2-pyridinecarbonitrile] was run?
Answer: 38%

Question: For `Fc1ccc(-c2nn(CCN3CCOCC3)cc2-c2ccncc2)cc1` [Example A-216, 4-[2-[3-(4-fluorophenyl)-4-(4-pyridinyl)-1H-pyrazol-1-yl]ethyl]morpholine], which “mLPS 8 h percent inhibition” value is on record?
Answer: 27%

Question: For `Fc1ccc(-c2n[nH]c(NCCN3CCOCC3)c2-c2ccncc2)cc1` [Example A-218, N-[5-(4-fluorophenyl)-4-(4-pyridinyl)-1H-pyrazol-3-yl]-4-morpholineethanamine], which “mLPS 8 h percent inhibition” value is on record?
Answer: 18%

Question: Which “mLPS 8 h percent inhibition” value does the source give for `c1cc(-c2c[nH]nc2-c2ccc3c(c2)OCO3)ccn1` [Example A-228, 4-[3-(1,3-benzodioxol-5-yl)-1H-pyrazol-4-yl]pyridine] here?
Answer: 32%

Question: For `Cn1cc(-c2ccncc2)c(-c2ccc3c(c2)OCO3)n1` [Example A-231, 4-[3-(1,3-benzodioxol-5-y)-1-methyl-1H-pyrazol-4-yl]pyridine], which “mLPS 8 h percent inhibition” value is on record?
Answer: 86%

Question: Which “mLPS 8 h percent inhibition” value does the source give for `Fc1ccc(-c2n[nH]cc2-c2ccncc2)cc1F` [Example A-239, 4-[3-(3,4-difluorophenyl)-1H-pyrazol-4-yl]pyridine] here?
Answer: 51%

Question: `Fc1cc(-c2c[nH]nc2-c2ccc(Cl)cc2)ccn1` [Example A-240] was tested. Which “mLPS 8 h percent inhibition” value did it give?
Answer: 78%

Question: With `Brc1ccc(-c2n[nH]cc2-c2ccncc2)cc1` [Example A-241, 4-[3-(4-bromophenyl)-1H-pyrazol-4-yl]pyridine] as the compound, how does the “mLPS 8 h percent inhibition” value read?
Answer: 79%

Question: With `Cn1cc(-c2ccncc2)c(-c2ccc(F)c(F)c2)n1` [Example A-242, 4-[3-(3,4-difluorophenyl)-1-methyl-1H-pyrazol-4-yl]pyridine] as the compound, how does the “mLPS 8 h percent inhibition” value read?
Answer: 95%

Question: Which “mLPS 8 h percent inhibition” value does the source give for `Fc1ccc(-c2n[nH]cc2-c2ccnc(F)c2)cc1` [Example A-249, 2-fluoro-4-[3-(4-fluorophenyl)-1H-pyrazol-4-yl]pyridine] here?
Answer: 73%

Question: With `Cn1cc(-c2ccncc2)c(-c2ccc(C(F)(F)F)cc2)n1` [Example A-252, 4-[1-methyl-3-[4-(trifluoromethyl)phenyl]-1H-pyrazol-4-yl]pyridine] as the compound, how does the “mLPS 8 h percent inhibition” value read?
Answer: 48%

same assay, conditions: Table 6; mouse LPS, head '8 h', dose not given, oral gavage

Question: With `Cn1cc(-c2ccncc2)c(-c2cccc(F)c2)n1` [Example A-229, 4-[3-(3-fluorophenyl)-1-methyl-1H-pyrazol-4-yl]pyridine] as the compound, how does the “mLPS 8 h percent inhibition” value read?
Answer: 76%

Question: Which “mLPS 8 h percent inhibition” value does the source give for `Cn1cc(-c2ccncc2)c(-c2ccc(I)cc2)n1` [Example A-251, 4-[3-(4-iodophenyl)-1-methyl-1H-pyrazol-4-yl]pyridine] here?
Answer: 32%
